Results published in paper PMC12233266, “Loss of serine/threonine protein phosphatase 6 severely impairs sexual stage development in malaria parasite Plasmodium berghei” (PLOS Pathogens, 2025).

Target: T1, Ser/Thr protein phosphatase 6 (PbPP6) (Plasmodium berghei, UniProt A0A509AFY8)
T1 construct: gene PBANKA_0412100; full-length PbPP6 (308 aa), C-terminal His tag, expressed in Pichia GS115 (rPbPP6)
T1 sequence (A0A509AFY8 1-308): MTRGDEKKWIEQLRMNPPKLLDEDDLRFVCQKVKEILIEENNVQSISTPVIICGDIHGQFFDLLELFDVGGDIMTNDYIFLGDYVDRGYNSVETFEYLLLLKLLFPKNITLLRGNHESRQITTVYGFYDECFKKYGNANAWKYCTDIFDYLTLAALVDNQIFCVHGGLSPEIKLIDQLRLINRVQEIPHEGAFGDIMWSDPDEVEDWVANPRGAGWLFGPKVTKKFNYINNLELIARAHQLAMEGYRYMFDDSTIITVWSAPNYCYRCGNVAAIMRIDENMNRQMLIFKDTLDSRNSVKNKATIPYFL
Experiment: ProFluor Ser/Thr PPase fluorescence assay (R110 substrate) with purified recombinant enzyme, dose-response
Assay type: biochemical

Structure (SMILES): C=C1[C@@H](O)[C@@H]2O[C@]3(CC[C@H](/C=C/[C@@H](C)[C@@H]4CC(C)=C[C@@]5(O[C@H](C[C@@](C)(O)C(=O)O)CC[C@H]5O)O4)O3)CC[C@H]2O[C@@H]1[C@@H](O)C[C@H](C)[C@H]1O[C@@]2(CCCCO2)CC[C@H]1C [OKA, okadaic acid]
- IC50: 0.86 nM
